Data reported in the NIST ThermoML archive (doi:10.1021/je8004062).

Experiment: mn = molality of the nth substance listed, in mol/kg
Settings: 101 kPa, Liquid

[Cl-].[Cl-].[Cl-].[La+3] [lanthanum chloride] + O
Settings	mass density, 293.15 K [kg/m3]	mass density, 298.15 K [kg/m3]	mass density, 303.15 K [kg/m3]	viscosity, 293.15 K [mPa·s]	viscosity, 298.15 K [mPa·s]	viscosity, 303.15 K [mPa·s]
m1 = 0.0996	1020.8	1019.4	1018	1.068	0.9503	0.8517
m1 = 0.1997	1043.7	1042.1	1040.4	1.109	0.9881	0.8863
m1 = 0.2997	1065.6	1063.8	1062	1.176	1.049	0.9414
m1 = 0.3994	1086.9	1085	1083.2	1.255	1.12	1.006
m1 = 0.4984	1107.7	1105.8	1103.9	1.34	1.196	1.075
m1 = 0.6	1128.9	1126.9	1125	1.432	1.279	1.149
m1 = 0.6981	1149.1	1147.2	1145.3	1.524	1.361	1.224
m1 = 0.7983	1169.6	1167.7	1165.8	1.621	1.447	1.301
m1 = 0.9256	1195.5	1193.7	1191.8	1.745	1.558	1.402
m1 = 1.201	1251.1	1249.5	1247.8	2.02	1.804	1.624
